In patent US20050107293A1, “Protein modification and maintenance molecules” (priority 2001, published 2005):

Columns and labels:
[1] = tested on: liver C3A cells; assay: Microarray analysis of SEQ ID NO:49 expression in steroid-treated C3A cells; assay type: cell-based, human; details: for differential expression of SEQ ID NO:49: liver C3A cells treated with one steroid, microarray
Excerpt: The human C3A cell line is a clonal derivative of HepG2/C3 and has been established as an in vitro model of the mature human liver (Mickelson et al. (1995) Hepatology 22:866-875; Nagendra et al. (1997) Am J Physiol 272:G408-G416). […] These experiments indicate that SEQ ID NO:49 is useful in diagnostic assays for liver diseases and as a potential biological marker and therapeutic agent in the treatment of liver diseases and disorders.

[2] = greater than progesterone; cited from earlier work
[3] = tested on: C3A cells; assay: Microarray analysis of SEQ ID NO:59 expression in C3A cells treated with progesterone or budenoside; assay type: cell-based, human; details: early confluent C3A cells, 10 μM, at each time point (1, 3, and 6 hours), versus untreated C3A cells
Excerpt: The human C3A cell line is a clonal derivative of HepG2/C3 (hepatoma cell line, isolated from a person with liver tumor), which was selected for strong contact inhibition of growth. The use of a clonal population enhances the reproducibility of the cells. C3A cells have many characteristics of primary human hepatocytes in culture: i) expression of insulin receptor and insulin-like growth factor II receptor; ii) secretion of a high ratio of serum albumin compared with α-fetoprotein iii) conversion of ammonia to urea and glutamine; iv) metabolism of aromatic amino acids; and v) proliferation in glucose-free and insulin-free medium. The C3A cell line is now well established as an in vitro model of the mature human liver (Mickelson et al. (1995) Hepatology 22:866-875; Nagendra et al. (1997) Am J Physiol 272:G408-G416). Early Confluent C3A cells were treated with progesterone or budenoside at 1, 10, and 100 μM for 1, 3, and 6 hours. The treated cells were compared to untreated early confluent C3A cells. […] Therefore, SEQ ID NO:59 may be useful in monitoring of, and diagnostic assays for steroid hormone-induced responses.

For `C[C@H]1C[C@H]2[C@@H]3CCC4=CC(=O)C=C[C@]4(C)[C@@]3(Cl)[C@@H](O)C[C@]2(C)[C@@]1(O)C(=O)CO` [beclomethasone], the “decrease in expression of SEQ ID NO:5” value ([1]; early confluent C3A cells treated for 1, 3, or 6 hours, at a minimum of two out of the three time points) was “at least a two-fold decrease” and the “differential expression of SEQ ID NO:49” value [1] was “differential expression”.
For “6α-methyl-17-hydroxyprogesterone [Medroxyprogesterone]”, the “pharmacological activity relative to progesterone” value [2] is listed as “about 15 times”.
With `CC(=O)[C@H]1CC[C@H]2[C@@H]3CCC4=CC(=O)CC[C@]4(C)[C@H]3CC[C@]12C` [progesterone] the “expression of SEQ ID NO:59” value [3] was “decreased by at least two-fold” and the “differential expression of SEQ ID NO:49” value [1] was “differential expression”.
